Experimental data: patent US20170197980A1, “N-(4-PHENYL)-N'-(3-FLUOROPHENYL)UREA DOCUSATE” (AbbVie Inc., priority 2014, published 2017)
≈ marks a conversion by molar mass, not a printed value. Entries after “also recorded” stand apart in the source; their conditions may differ.

What was measured:
Assay type in all cases: physicochemical
Solubility in water = conditions: pH 7.4
[1] = Solubility in SEDDs (lipid) vehicle, saturated solution
Procedure: A saturated solution of the docusate salt in the SEDDs vehicle and a saturated solution of the tosylate salt in the SEDDs vehicle were prepared. The SEDDs vehicle was 15 wt % Capmul® MCM C10, 50 wt % Polysorbate 80, and 35 wt % Miglyol 812.

[2] = Microcentrifuge dissolution in simulated gastric and intestinal media (GB/IB transfer test); conditions: for dissolution in simulated gastric media: 0.01N HCl, pH 2.0, 1000 μg/mL; for dissolution in simulated intestinal media (IB): 0.5 wt % SIF powder in PBS, pH 6.5, 500 μg/mL
Procedure: Microcentrifuge dissolution of salts in simulated gastric and intestinal media
Dissolution of tosylate and docusate salts in simulated GB/IB transfer dissolution test was measured and compared to free base. The simulated gastric media was 0.01N HCl, pH 2.0 (concentration 1000 μg/mL), and the simulated intestinal media was 0.5 wt % SIF powder in PBS, pH 6.5 (500 μg/mL).
Once the pH is raised to intestinal pH, the drug converts back to a free base that precipitates.

[3] = Solubility in organic solvents, potency measurement by HPLC
Procedure: In a glass vial, N-(4-{4-amino-7-[1-(2-hydroxyethyl)-1H-pyrazol-4-yl]thieno[3,2-c]pyridin-3-yl}phenyl)-N′-(3-fluorophenyl)urea free base (501 mg, 1.02 mmol) was slurried in 20 ml of THF using a magnetic stir bar. The free base was converted to the HCl salt in-situ by addition of 5.0 ml of aqueous 0.207 N HCl. Docusate sodium (465 mg, 1.05 mmol) was added and the mixture was stirred until all solids dissolved. Solvent was removed by rotoevaporation. Acetone, 15 ml, was added to the flask with mixing until most of the solid has dissolved, resulting in a suspension of NaCl particles. The sample was then filtered through a 0.45 µm syringe filter (to remove the NaCl particles) followed by rotoevaporation to remove acetone. The sample was placed on a vacuum line to dry for 2 hours. The above step was repeated with 15 ml acetone and filtration through a 0.22 µm filter. After removing the acetone by rotoevaporation, the sample was dried under vacuum overnight. The sample appears to be amorphous to the naked eye. […] Solubilities were determined by potency measurements using high-performance liquid chromatography (HPLC).

[4] = Stability, droplet size (DLS) and appearance of the SEDD emulsion after 1:9 dilution in water
Procedure: The docusate:SEDD concentrate was diluted in water at a 1:9 ratio, resulting in an emulsion at a concentration of 2.3 mg/mL. […] The emulsion was stable at native pH 4 for more than 2 weeks at room temperature, with no significant change in particle size analysis by dynamic light scattering (DLS).
The tosylate:SEDD concentrate was diluted in water at a 1:9 ratio, resulting in an emulsion at a concentration of 2.3 mg/mL.

[5] = 15 wt % Capmul MCM C10, 50 wt % Polysorbate 80, 35 wt % Miglyol 812

Row | solubility in water (Solubility in water) | solubility in the SEDD vehicle [1, 5] | dissolution in simulated gastric media [2] | dissolution in simulated intestinal media (IB) [2] | solubility ([3]; organic solvent or mixture) | solubility ([1]; SEDDs vehicle, oil or lipid, thermodynamic from solid, 15 wt % Capmul MCM C10, 50 wt % Polysorbate 80, 35 wt % Miglyol 812, read-out: solubility in the SEDD vehicle) | solubility in tetrahydrofuran (THF) ([3]; THF) | solubility in acetone ([3]; acetone) | solubility in dichloromethane ([3]; dichloromethane) | solubility in ethanol ([3]; ethanol) | solubility in lipid vehicles (in words) ([1]; lipid vehicles) | SMILES | stability in emulsions (in words) [4]
1 | less than 30 ng/ml | 2.7 mg/mL (≈ 5.53 mM) | significant solubility at the lower pH | precipitates |  |  |  |  |  |  |  | Nc1ncc(-c2cnn(CCO)c2)c2scc(-c3ccc(NC(=O)Nc4cccc(F)c4)cc3)c12 [free base, N-(4-{4-amino-7-[1-(2-hydroxyethyl)-1H-pyrazol-4-yl]thieno[3,2-c]pyridin-3-yl}phenyl)-N′-(3-fluorophenyl)urea free base] | 
2 |  |  | significant solubility at the lower pH | precipitates | > 25 mg/mL | 22 mg/mL |  |  |  |  |  | Cc1ccc(S(=O)(=O)O)cc1.Nc1ncc(-c2cnn(CCO)c2)c2scc(-c3ccc(NC(=O)Nc4cccc(F)c4)cc3)c12 [tosylate salt, N-(4-{4-amino-7-[1-(2-hydroxyethyl)-1H-pyrazol-4-yl]thieno[3,2-c]pyridin-3-yl}phenyl)-N′-(3-fluorophenyl)urea tosylate salt] | 

Row | SMILES | solubility in water (Solubility in water) | solubility in the SEDD vehicle [1, 5] | dissolution in simulated gastric media [2] | dissolution in simulated intestinal media (IB) [2] | solubility ([3]; organic solvent or mixture) | solubility ([1]; SEDDs vehicle, oil or lipid, thermodynamic from solid, 15 wt % Capmul MCM C10, 50 wt % Polysorbate 80, 35 wt % Miglyol 812, read-out: solubility in the SEDD vehicle) | solubility in tetrahydrofuran (THF) ([3]; THF) | solubility in acetone ([3]; acetone) | solubility in dichloromethane ([3]; dichloromethane) | solubility in ethanol ([3]; ethanol) | solubility in lipid vehicles (in words) ([1]; lipid vehicles) | stability in emulsions (in words) [4]
3 | CCCCC(CC)COC(=O)CC(C(=O)OCC(CC)CCCC)S(=O)(=O)O.Nc1ncc(-c2cnn(CCO)c2)c2scc(-c3ccc(NC(=O)Nc4cccc(F)c4)cc3)c12 [docusate salt, N-(4-{4-amino-7-[1-(2-hydroxyethyl)-1H-pyrazol-4-yl]thieno[3,2-c]pyridin-3-yl}phenyl)-N′-(3-fluorophenyl)urea docusate salt] |  | 23 mg/mL | does not dissolve in acidic pH | significantly higher solubility profile during the first 90 minutes in IB than either free base or the tosylate salt; also recorded: appreciable solubility in IB solution |  |  | greater than 45 mg/ml | > 47 mg/mL | > 75 mg/mL | > 51 mg/mL | high solubility in lipid vehicles | remain stable in emulsions over a period of several days
